Laboratory results taken from ChEMBL document CHEMBL1909046, “DrugMatrix in vitro pharmacology data”.

Experiments:
[1] = DRUGMATRIX: Purinergic P2X radioligand binding (ligand: [3H] alpha, beta-Methylene-ATP); assay type: cell membranes, Oryctolagus cuniculus, New Zealand albino, Urinary bladder, Membrane; settings: Not Active = under 50% inhibition at 10 µM
[2] = target: Mitogen-activated protein kinase 14 (Homo sapiens, UniProt Q16539); set-up: species or system Escherichia coli;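 further: inhibition of p38alpha enzyme activity in a biochemical kinase assay, with myelin basic protein serving as substrate; in other assays of this panel Not Active means under 50% inhibition at 10 µM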
Sequence of Mitogen-activated protein kinase 14 (Q16539 whole entry): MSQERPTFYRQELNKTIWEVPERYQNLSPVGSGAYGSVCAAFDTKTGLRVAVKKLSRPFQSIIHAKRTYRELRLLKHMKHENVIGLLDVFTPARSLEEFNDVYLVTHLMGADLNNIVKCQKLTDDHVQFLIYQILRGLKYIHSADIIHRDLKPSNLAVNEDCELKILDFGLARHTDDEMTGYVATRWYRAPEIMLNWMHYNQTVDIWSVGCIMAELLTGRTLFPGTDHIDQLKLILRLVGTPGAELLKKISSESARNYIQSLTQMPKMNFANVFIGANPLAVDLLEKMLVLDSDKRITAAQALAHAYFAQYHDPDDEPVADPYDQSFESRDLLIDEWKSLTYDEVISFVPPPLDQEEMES

[3] = DRUGMATRIX: Sigma2 radioligand binding (ligand: [3H] Ifenprodil); assay type: cell membranes, Rattus norvegicus, Wistar, Brain, Membrane; settings: Not Active = under 50% inhibition at 10 µM
Adenosine receptor A1 = target: T1, Adenosine receptor A1 (Homo sapiens, UniProt P30542); assay type: cell membranes, CHO, Membrane; settings: cho;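 further: radioligand binding assay at the adenosine A1 receptor, with DPCPX serving as the labelled ligand; in other assays of this panel Not Active means under 50% inhibition at 10 µM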
T1 sequence (P30542 whole entry): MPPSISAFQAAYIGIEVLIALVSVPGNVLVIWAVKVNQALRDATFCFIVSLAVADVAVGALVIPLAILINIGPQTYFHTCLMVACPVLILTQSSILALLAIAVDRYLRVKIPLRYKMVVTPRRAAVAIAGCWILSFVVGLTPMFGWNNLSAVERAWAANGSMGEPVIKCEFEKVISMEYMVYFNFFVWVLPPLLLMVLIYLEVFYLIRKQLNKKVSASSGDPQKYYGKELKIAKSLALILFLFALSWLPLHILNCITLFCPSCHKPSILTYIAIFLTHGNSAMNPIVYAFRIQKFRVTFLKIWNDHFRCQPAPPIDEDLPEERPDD

[4] = DRUGMATRIX: Phorbol Ester radioligand binding (ligand: [3H] PDBu); assay type: cell membranes, Mus musculus, ICR, Brain, Membrane; settings: Not Active = under 50% inhibition at 10 µM
D(1A) dopamine receptor = D(1A) dopamine receptor (Homo sapiens, UniProt P21728); assay: DRUGMATRIX: Dopamine D1 radioligand binding (ligand: [3H] SCH-23390); assay type: cell membranes, CHO, Membrane; settings: cho; Not Active = under 50% inhibition at 10 µM
Sequence of D(1A) dopamine receptor (P21728 whole entry): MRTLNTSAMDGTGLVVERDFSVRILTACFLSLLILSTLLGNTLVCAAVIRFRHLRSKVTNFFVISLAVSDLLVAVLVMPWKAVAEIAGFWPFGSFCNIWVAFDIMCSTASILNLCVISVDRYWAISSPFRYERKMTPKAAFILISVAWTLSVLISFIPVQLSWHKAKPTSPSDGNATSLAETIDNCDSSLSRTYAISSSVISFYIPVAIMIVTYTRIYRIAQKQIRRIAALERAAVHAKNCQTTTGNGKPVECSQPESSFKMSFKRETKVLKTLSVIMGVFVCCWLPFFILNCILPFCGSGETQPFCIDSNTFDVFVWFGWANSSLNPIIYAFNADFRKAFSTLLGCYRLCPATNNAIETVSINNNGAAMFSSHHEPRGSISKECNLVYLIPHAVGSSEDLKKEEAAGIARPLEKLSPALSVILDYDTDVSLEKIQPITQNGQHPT

[5] = target: Beta-1 adrenergic receptor (Homo sapiens, UniProt P08588); assay: DRUGMATRIX: Adrenergic beta1 radioligand binding (ligand: [125I] Cyanopindolol); assay type: cell membranes, CHO-K1, Membrane; settings: cho-k1; Not Active = under 50% inhibition at 10 µM
Sequence of Beta-1 adrenergic receptor (P08588 whole entry): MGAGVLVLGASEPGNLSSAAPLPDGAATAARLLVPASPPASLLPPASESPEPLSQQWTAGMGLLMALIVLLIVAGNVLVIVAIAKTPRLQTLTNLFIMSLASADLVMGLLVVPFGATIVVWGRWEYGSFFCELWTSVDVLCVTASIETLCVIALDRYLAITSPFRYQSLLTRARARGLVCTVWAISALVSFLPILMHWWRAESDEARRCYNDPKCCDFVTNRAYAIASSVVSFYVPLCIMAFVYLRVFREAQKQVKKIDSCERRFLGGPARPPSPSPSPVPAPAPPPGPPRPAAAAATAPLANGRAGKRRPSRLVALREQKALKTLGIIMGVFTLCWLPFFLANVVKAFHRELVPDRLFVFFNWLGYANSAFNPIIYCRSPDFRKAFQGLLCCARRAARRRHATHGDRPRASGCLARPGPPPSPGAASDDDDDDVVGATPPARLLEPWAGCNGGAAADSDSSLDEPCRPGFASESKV

[6] = DRUGMATRIX: beta-Lactamase enzyme inhibition (substrate: Nitrocefin); set-up: species or system Bacillus cereus; settings: Not Active = under 50% inhibition at 10 µM
Histamine H2 receptor = Histamine H2 receptor (Homo sapiens, UniProt P25021); assay type: cell membranes, CHO-K1, Membrane; settings: cho-k1; further: in other assays of this panel Not Active means under 50% inhibition at 10 µM
Sequence of Histamine H2 receptor (P25021 whole entry): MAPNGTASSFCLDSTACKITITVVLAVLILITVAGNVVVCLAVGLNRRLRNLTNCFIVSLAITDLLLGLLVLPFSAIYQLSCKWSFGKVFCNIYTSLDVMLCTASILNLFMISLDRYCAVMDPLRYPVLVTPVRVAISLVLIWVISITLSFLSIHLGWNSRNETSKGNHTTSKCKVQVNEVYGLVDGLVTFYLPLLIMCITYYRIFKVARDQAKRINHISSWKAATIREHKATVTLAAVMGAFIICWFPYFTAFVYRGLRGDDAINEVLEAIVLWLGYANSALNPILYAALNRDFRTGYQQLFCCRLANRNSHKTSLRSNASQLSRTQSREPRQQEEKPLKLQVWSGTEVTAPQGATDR

[7] = DRUGMATRIX: Glutamate, Kainate radioligand binding (ligand: [3H] Kainic acid); assay type: cell membranes, Rattus norvegicus, Wistar, Brain, Membrane; settings: Not Active = under 50% inhibition at 10 µM
[8] = target: T2, Muscarinic acetylcholine receptor M4 (Homo sapiens, UniProt P08173); assay type: cell membranes, CHO-K1, Membrane; settings: cho-k1; further: in other assays of this panel Not Active means under 50% inhibition at 10 µM
T2 sequence (P08173 whole entry): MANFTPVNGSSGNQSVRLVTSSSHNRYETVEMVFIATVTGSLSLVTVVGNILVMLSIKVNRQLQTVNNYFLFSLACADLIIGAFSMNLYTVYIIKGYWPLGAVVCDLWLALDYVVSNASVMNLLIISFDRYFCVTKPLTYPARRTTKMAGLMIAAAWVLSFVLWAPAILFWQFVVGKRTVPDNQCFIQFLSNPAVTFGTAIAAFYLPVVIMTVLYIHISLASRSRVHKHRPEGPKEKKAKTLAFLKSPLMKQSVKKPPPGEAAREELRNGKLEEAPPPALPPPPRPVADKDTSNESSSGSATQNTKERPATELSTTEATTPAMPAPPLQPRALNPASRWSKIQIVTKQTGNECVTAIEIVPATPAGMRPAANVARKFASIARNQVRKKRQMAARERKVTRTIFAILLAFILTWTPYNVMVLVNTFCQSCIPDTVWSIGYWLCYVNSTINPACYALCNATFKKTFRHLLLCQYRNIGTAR

Calcitonin receptor = target: T3, Calcitonin receptor (Homo sapiens, UniProt P30988); assay type: cell membranes, Membrane; settings: t47d; further: in other assays of this panel Not Active means under 50% inhibition at 10 µM
T3 sequence (P30988 whole entry): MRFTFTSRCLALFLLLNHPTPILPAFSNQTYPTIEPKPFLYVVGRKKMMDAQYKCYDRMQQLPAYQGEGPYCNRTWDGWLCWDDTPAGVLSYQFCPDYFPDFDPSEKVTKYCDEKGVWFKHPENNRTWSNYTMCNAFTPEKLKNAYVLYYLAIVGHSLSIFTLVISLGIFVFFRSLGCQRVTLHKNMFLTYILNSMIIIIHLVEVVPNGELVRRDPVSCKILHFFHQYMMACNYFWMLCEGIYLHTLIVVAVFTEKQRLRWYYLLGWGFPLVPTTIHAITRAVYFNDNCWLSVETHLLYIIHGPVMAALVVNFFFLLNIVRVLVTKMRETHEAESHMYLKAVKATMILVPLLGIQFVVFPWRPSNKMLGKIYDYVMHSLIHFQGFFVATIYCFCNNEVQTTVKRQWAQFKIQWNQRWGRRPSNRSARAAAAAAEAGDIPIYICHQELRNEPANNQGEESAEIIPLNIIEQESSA

[9] = DRUGMATRIX: Platelet-Derived Growth Factor (PDGF) radioligand binding (ligand: [125I] PDGF); assay type: cell-based; settings: nih3t3; Not Active = under 50% inhibition at 10 µM
[10] = target: T4, Polyunsaturated fatty acid lipoxygenase ALOX15 (Oryctolagus cuniculus, UniProt P12530); assay: biochemical; assay type: tissue-based, Reticulocytes; settings: reticulocytes
T4 sequence (P12530 whole entry): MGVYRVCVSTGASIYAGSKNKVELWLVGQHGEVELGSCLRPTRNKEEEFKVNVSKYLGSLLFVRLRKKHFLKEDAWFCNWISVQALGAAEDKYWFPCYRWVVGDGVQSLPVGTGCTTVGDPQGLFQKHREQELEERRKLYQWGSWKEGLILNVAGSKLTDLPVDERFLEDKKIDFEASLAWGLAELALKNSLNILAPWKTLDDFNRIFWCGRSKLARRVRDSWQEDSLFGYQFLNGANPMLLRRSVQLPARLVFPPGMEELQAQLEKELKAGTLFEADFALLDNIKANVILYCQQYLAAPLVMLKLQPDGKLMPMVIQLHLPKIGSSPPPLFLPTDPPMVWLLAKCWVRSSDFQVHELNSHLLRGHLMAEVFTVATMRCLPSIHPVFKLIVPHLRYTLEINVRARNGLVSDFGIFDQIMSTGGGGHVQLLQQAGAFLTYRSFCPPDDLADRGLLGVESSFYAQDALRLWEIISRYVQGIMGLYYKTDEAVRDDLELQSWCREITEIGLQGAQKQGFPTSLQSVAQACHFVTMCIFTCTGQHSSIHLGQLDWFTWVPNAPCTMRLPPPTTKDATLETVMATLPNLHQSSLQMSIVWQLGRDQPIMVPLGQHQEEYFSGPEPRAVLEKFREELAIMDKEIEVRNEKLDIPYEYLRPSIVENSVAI

| SMILES | IC50 [1] | Ki [1] | IC50 [2] | IC50 [3] | Ki [3] | IC50 (Adenosine receptor A1) | IC50 [4] | Ki [4] | IC50 (D(1A) dopamine receptor) | IC50 [5] | IC50 [6] | Ki [6] | IC50 (Histamine H2 receptor) | IC50 [7] | Ki [7] | IC50 [8] | IC50 (Calcitonin receptor) | IC50 [9] | Ki [9] | IC50 [10] | further results |
| --- | --- | --- | --- | --- | --- | --- | --- | --- | --- | --- | --- | --- | --- | --- | --- | --- | --- | --- | --- | --- | --- |
| CC1(C)[C@H]2CC[C@]1(C)C(=O)C2 [(-)-CAMPHOR] | Not Active | Not Active | Not Active | Not Active | Not Active | Not Active | Not Active | Not Active | Not Active | Not Active | Not Active | Not Active | Not Active | Not Active | Not Active | Not Active | Not Active | Not Active | Not Active | Not Active |  |
| Oc1c(I)cc(I)c2cccnc12 [IODOQUINOL] | Not Active | Not Active |  | Not Active | Not Active | Not Active | Not Active | Not Active | Not Active | Not Active | Not Active | Not Active | Not Active | Not Active | Not Active | Not Active | Not Active | Not Active | Not Active | Not Active | IC50 ([2]; read-out: IC50): 364 nM |
| NNC(=O)c1ccncc1 [ISONIAZID] | Not Active | Not Active | Not Active | Not Active | Not Active | Not Active | Not Active | Not Active | Not Active | Not Active | Not Active | Not Active | Not Active | Not Active | Not Active | Not Active | Not Active | Not Active | Not Active | Not Active |  |
| CC1=C(/C=C/C(C)=C/C=C/C(C)=C\C(=O)O)C(C)(C)CCC1 [ISOTRETINOIN] | Not Active | Not Active |  | Not Active | Not Active | Not Active | Not Active | Not Active | Not Active |  | Not Active | Not Active | Not Active | Not Active | Not Active | Not Active | Not Active | Not Active | Not Active | Not Active | IC50 ([2]; read-out: IC50): 2530 nM; Ki [5]: Not Active |
| CO[C@@H]1[C@@H](O[C@@H]2O[C@H](C)[C@@H](O[C@H]3C[C@@](C)(O)[C@@H](OC(=O)CC(C)C)[C@H](C)O3)[C@H](N(C)C)[C@H]2O)[C@@H](CC=O)C[C@@H](C)[C@@H](O)/C=C/C=C/C[C@@H](C)OC(=O)C[C@H]1O [KITASAMYCIN] | Not Active | Not Active | Not Active | Not Active | Not Active | Not Active | Not Active | Not Active | Not Active | Not Active | Not Active | Not Active | Not Active | Not Active | Not Active | Not Active | Not Active | Not Active | Not Active | Not Active |  |
| Nc1nnc(-c2cccc(Cl)c2Cl)c(N)n1 [LAMOTRIGINE] | Not Active | Not Active | Not Active | Not Active | Not Active | Not Active | Not Active | Not Active | Not Active | Not Active | Not Active | Not Active | Not Active | Not Active | Not Active | Not Active | Not Active | Not Active | Not Active | Not Active |  |
| CCC[C@@H]1C[C@@H](C(=O)N[C@@H]([C@H]2O[C@H](SC)[C@H](O)[C@@H](O)[C@H]2O)[C@@H](C)O)N(C)C1 [LINCOMYCIN] | Not Active | Not Active | Not Active | Not Active | Not Active | Not Active | Not Active | Not Active | Not Active | Not Active | Not Active | Not Active | Not Active | Not Active | Not Active | Not Active | Not Active | Not Active | Not Active | Not Active |  |
| NCCCC[C@H](N[C@@H](CCc1ccccc1)C(=O)O)C(=O)N1CCC[C@H]1C(=O)O [LISINOPRIL ANHYDROUS] | Not Active | Not Active | Not Active | Not Active | Not Active | Not Active | Not Active | Not Active | Not Active | Not Active | Not Active | Not Active | Not Active | Not Active | Not Active | Not Active | Not Active | Not Active | Not Active | Not Active |  |
